Data reported in patent US12234223B2, “Phthalazinone compound, and preparation method therefor and medical use thereof” (SHANGHAI JEMINCARE PHARMACEUTICALS CO., LTD, priority 2020, dated 2025).

Tests used:
Androgen receptor = target: T1, Androgen receptor (Homo sapiens, UniProt P10275); assay: Androgen receptor In-Cell-Western assay (AR degradation in VCaP cells); format: cell-based; details: 24 hours treatment; for DC50: concentration for half the maximum degradation degree of AR in VCaP cells; for Dmax: maximum degradation degree of AR in VCaP cells
T1 construct: Dmax: a maximum degradation degree of AR in VCaP cells; endogenous in cells; host or cells: VCaP cells
T1 sequence (P10275 1-920): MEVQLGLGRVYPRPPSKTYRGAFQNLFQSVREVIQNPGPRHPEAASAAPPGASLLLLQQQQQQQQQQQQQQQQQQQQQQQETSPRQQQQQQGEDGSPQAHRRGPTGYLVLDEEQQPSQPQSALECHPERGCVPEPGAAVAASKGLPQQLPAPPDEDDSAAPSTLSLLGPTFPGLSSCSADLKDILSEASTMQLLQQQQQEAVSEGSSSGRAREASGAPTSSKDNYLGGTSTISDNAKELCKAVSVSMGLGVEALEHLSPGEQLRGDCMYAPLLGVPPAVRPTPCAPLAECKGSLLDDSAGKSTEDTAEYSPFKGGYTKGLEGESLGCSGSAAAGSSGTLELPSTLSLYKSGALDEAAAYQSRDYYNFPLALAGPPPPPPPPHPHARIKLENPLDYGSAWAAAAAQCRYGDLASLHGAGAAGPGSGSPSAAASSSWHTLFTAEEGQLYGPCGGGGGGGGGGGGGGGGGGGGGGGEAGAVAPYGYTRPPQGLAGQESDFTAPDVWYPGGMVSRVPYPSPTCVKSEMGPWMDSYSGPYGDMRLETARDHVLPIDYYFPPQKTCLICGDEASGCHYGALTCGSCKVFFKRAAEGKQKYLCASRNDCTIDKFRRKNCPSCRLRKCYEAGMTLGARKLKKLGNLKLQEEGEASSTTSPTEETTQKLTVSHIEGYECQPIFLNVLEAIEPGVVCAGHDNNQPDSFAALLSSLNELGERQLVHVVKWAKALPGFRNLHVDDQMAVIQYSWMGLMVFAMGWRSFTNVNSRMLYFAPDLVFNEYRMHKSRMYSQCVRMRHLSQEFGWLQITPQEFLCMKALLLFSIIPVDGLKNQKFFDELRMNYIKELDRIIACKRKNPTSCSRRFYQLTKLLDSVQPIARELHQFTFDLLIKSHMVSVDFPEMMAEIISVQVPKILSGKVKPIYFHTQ
Protocol: This assay evaluated compound performance in VCap cells. An intracellular androgen receptor was assayed by In-Cell-Western according to the assay procedure described below.
In a 96-well cell culture plate (Corning 3599) pretreated by poly-D-Lysin, Vcap cells were seeded to a Vcap cell assay medium [phenol red containing DMEM (Gibco Cat. No.: 11995065); fetal bovine serum FBS (Gibco Cat. No.: 10099141C)] at a volume of 100 μL/well and a cell density of 50,000 cells/well. Cells were cultured for at least two days. • 1. First, cells were treated with a compound. The compound was subjected to a gradient dilution by using DMSO and a cell culture medium, so that DMSO contained in the cell culture plate was diluted to 0.5%: a polypropylene plate was used according to the following protocol: • (1) (i) A 200× stock solution plate was prepared in DMSO; (ii) a 10 mM stock solution was diluted at 1:4 (10 μL stock solution+40 μL DMSO=2000 uM) with DMSO to enter row 2; (iii) a 1:4 (10 μL protac+40 μL DMSO) gradient dilution was performed from row 2 to row 9, row 1 was reserved for a 2000 uM reference compound and row 10 was reserved for DMSO. (iv) There were 8 concentrations (the final concentrations on the 200× plate was 2000 uM, 400 uM, 80 uM, etc.) in total. (2) (i) A 3× stock solution was prepared in the medium; (ii) 3 μL of the 200× stock solution was transferred to 197 μL of the medium (by a 12-channel pipette, from row 1 to row 10), i.e. a 3× stock solution plate. (iii) Uniform mixing was performed for the stock solution plate. (3) (i) The medium of Vcap cells was replaced with a fresh medium, with the medium volume of 100 μL. (ii) The uniformly-mixed 3× stock solution was transferred to the cell culture plate (by the 12-channel pipette, 50 μL of the stock solution was transferred from row 1 to row 10). (iii) The cells were cultured for 24 hours. • 2. The expression level of the intracellular androgen receptor after compound treatment was detected, and assay was performed according to the following method. • (1) (i) An equal volume of 8% paraformaldehyde was added to the cell culture plate for cell fixation. A fixative solution in the cell plate was discarded, and the cell plate was washed three times with PBS. (ii) A Triton solution was prepared (the stock solution was diluted at 1:1000). The solution in the cell plate was discarded, and a volume of 200 μL of a Triton diluent was added to each well. (iii) A 2× blocking solution was prepared (a 10× blocking stock solution was diluted at 1:4). The solution in the cell plate was discarded, and a volume of 100 μL of the 2× blocking solution was added to each well. (iv) A primary antibody solution (Androgen receptor Rabbit mAb, Cell Signaling Technology Cat. No.: 5153; 1:1000 dilution) was prepared. The solution in the cell plate was discarded, a volume of 100 μL of a primary antibody diluent was added to each well, and incubation was performed at 4 degrees overnight. (v) The primary antibody solution was discarded, and the cell plate was washed with 1× Wash buffer (Wash buffer in the present application means a washing buffer solution). (vi) A secondary antibody solution (Goat anti Rabbit IgG (H+L) Secondary Antibody, HRP, Thermo Cat. No.: 31460; 1:5000 dilution) was prepared, and a volume of 100 μL of a secondary antibody diluent was added to each well for incubation. (vii) The secondary antibody solution in the cell plate was discarded, and the cell plate was washed with 1× Wash buffer. (viii) A TMB chromogenic solution (BD Cat. No.: 550534) was prepared, and a volume of 100 μL of the chromogenic solution was added to each well. (ix) A volume of 50 μL of a stop solution (BD Cat. No.: 550534) was added to each well. (x) Absorption values at OD 450 nm and 570 nm were read by EnVision. (2) (i) Normalized analysis was performed for the number of cells in each well. The solution in the cell plate was discarded, and the cell plate was washed three times with wash buffer. […]

VCaP cells = assay: Inhibitory effect on VCaP cell proliferation (Cell Titer Glo); format: cell-based; details: Homo sapiens, 144 h; for IC50: VCaP cells, 5% FBS and 0.1 nM R1881, 6 days; for Emax: maximum degree of VCaP cell proliferation inhibition, 6 days
Protocol: A tumor cell line Vcap (ATCC Cat. No. CRL-2876) was respectively cultured with DMEM (Gibco Cat. No. 11965-092) medium containing 10% FBS (Gibco Cat. No. 10099-141C). During testing, Vcap cells were replaced with a DMEM culture fluid containing 5% FBS and 0.1 nM R1881 (Sigma Cat. No. R0908). The assay method was as follows:
Vcap cells were seeded to a 384-well plate (Perkin Elmer Cat. No. 6007460) at a cell density of 1200 cells/well and a volume of 20 μL/well; after the cells were incubated overnight in a carbon dioxide incubator (Thermo), the prepared compound solutions with different concentrations were added at a volume of 5 μL/well; meanwhile, a corresponding solvent was provided as a control; after the cells were continuously incubated in the incubator for 6 days, the cell plate and the contents thereof were equilibrated to room temperature; 25 μL of a Cell Titer Glor (Promega Cat. No. G7573) reagent was added to each well; after vibration and uniform mixing, incubation in the dark was performed for 10-30 minutes, and a signal value was detected with Envision microplate reader (PerkinElmer).
A percentage inhibition rate of compound-treated wells was calculated through solvent control wells on the plate, GraphPad prism was used to fit the percentage inhibition rate data corresponding to different concentrations, and IC50 value was calculated by a 4-parameter nonlinear logistic formula.
Emax: a maximum degree of VCaP cell proliferation inhibition. IC50: a compound concentration required to achieve half the maximum degree of VCaP cell proliferation inhibition.

| SMILES | DC50 (Androgen receptor) | Dmax (Androgen receptor) | IC50 (VCaP cells) | Emax (VCaP cells) |
| --- | --- | --- | --- | --- |
| CC1(C)[C@H](NC(=O)c2ccc(N3CCC(CN4CCN(c5ccc6c(=O)n(C7CCC(=O)NC7=O)ncc6c5)CC4)CC3)c(F)c2)C(C)(C)[C@H]1Oc1ccc(C#N)c(Cl)c1 (some centres unmarked) [Compound 5] | 8.4 nM | 105% | 37 nM | 62% |
| CC1(C)[C@H](NC(=O)c2cnc(N3CCCC(CN4CCN(c5ccc6c(=O)n(C7CCC(=O)NC7=O)ncc6c5)CC4)CC3)nc2)C(C)(C)[C@H]1Oc1ccc(C#N)c(Cl)c1 (some centres unmarked) [Compound 25] | 10 nM | 116% | 27 nM | 62% |
